Laboratory results from patent US12460243B2, “Mass spectrometry determination of the sensitivity or resistance of bacteria to an antibiotic” (priority 2019, dated 2025).
Several values for one entry are separate records, joined by “and”; a condition that tells them apart may be missing. Equal entries are not always repeated. Bridge positions count the residues as written; N and C are the ends. Square brackets hold non-standard residues; d marks the D form. Peptide text beside a SMILES is read from it. * marks the point of attachment. Heptanoyl(6-Me) = CC(C)CCCCC(=O)*; Dab = NCC[C@H](N)C(=O)O

What was measured:
Assay type in all cases: cell-based
Escherichia coli [1] = experiment: MALDI-TOF detection of released characteristic proteins, 10 min at 50° C., filtration (examples V, VI); details: for Aire sous la courbe des pics observés, Protéine chaperonne de stress acide HdeB / Aire sous la courbe des pics observés, Protéine ribosomique 50S L29 / Aire sous la courbe des pics observés, Protéine ribosomique 50S L31 / Aire sous la courbe des pics observés, Protéine ribosomique 50S L33 / Aire sous la courbe des pics observés, SPIRAP (Stationary-Phase-Induced Ribosome-Associated Protein) / Ratio par protéine HdeB/Colistine / Ratio par protéine L29/Colistine / Ratio par protéine L31/Colistine / Ratio par protéine L33/Colistine / Ratio par protéine SIRAP/Colistine / Somme des ratios / sensitivity or resistance to colistin by MALDI-TOF: colistin 2.5 mg/ml, 10 min 50° C.; for classification by sum of the ratios against threshold: threshold 0.30
Experimental: (§1) The tests were carried out using the following steps: • preparing a suspension of microorganism at 2 McF in water (suspension medium, bioMérieux reference 70700), • preparing a solution of colistin sulfate (Sigma reference C4461) at a concentration of 2× in pure water (taking into account the colistin titer indicated by the manufacturer).
In the context of this example, the tests were carried out with the method of the present invention to determine the sensitivity or resistance of several bacteria of several strains such as in example V and comprising the following steps: • measuring the intensity of each peak observed, • finding a ratio between the sum of the intensities of the protein peaks of the microorganism and at least 1 peak of colistin. • determining the status, resistant or sensitive to colistin, as a function of the sum of the ratios obtained and of a threshold fixed for each species. • a resistant microorganism will have a low ratio and a sensitive microorganism will have a high ratio.
Firstly, the same strains of E. coli (EC_S10, EC_S15, EC_R16, EC_R17), used previously, are studied and the proteins characteristic of the species E. coli are analyzed. They are the following proteins: the stationary-phase-induced ribosome-associated protein (SPIRAP), the acid stress chaperone HdeB and the 50S ribosomal proteins L29, L31 and L33.

Acinetobacter baumannii [2] = experiment: MALDI-TOF detection of released characteristic proteins, 10 min at 50° C., filtration (example V); details: colistin 20 μg/ml, 10 min 50° C.
Experimental: as §1
(§2) The strains of A. baumannii (AB_S044, AB_S045, AB_S046, AB_R-E105) and of Pseudomonas aeruginosa (PA_S062, PA_SE64, PA_RE66, PA_RE68) are analyzed with the protocol described in example V. Thus, they are incubated in the presence of 20 μg/ml of colistin.

Pseudomonas aeruginosa [3] = experiment: as above; details: colistin 20 μg/ml, 10 min 50° C.
Experimental: as §1, §2

Escherichia coli [4] = experiment: microdilution in broth (reference method)
Experimental: (§3) So as to be able to evaluate the efficacy of the method according to the invention, the different strains were analyzed beforehand by microdilution in broth in order to determine their status (sensitive or resistant). This method is regarded as the reference method by the CLSI and EUCAST.

Escherichia coli [5] = experiment: MALDI-TOF detection of characteristic proteins released after incubation with colistin (examples II-IV, centrifugation); details: colistin 2.5 mg/ml
Experimental: This test was carried out using the following steps: • preparing a suspension of strains EC_S and EC_R of E. coli at 1 McFarland (McF) in water (suspension medium, bioMérieux reference 70700), • preparing a solution of colistin sulfate (Sigma, reference C4461) at a concentration of 5 mg/ml in pure water (taking into account the colistin titer indicated by the manufacturer), • mixing 250 μl of each suspension with 250 μl of colistin to obtain a solution of microorganism at 0.5 McF and at a concentration of 2.5 mg/ml of colistin, • homogenizing using a vortex for 5 seconds, • incubating the mixture for 4 hours at 37° C., • homogenizing using a vortex for 5 seconds, • centrifuging at 4700 rev/min (1500 g) for 5 minutes, • depositing 1 μl of the supernatant on a disposable target (bioMérieux reference 410893), • depositing 1 μl of HCCA matrix (bioMérieux, reference 411071) on the drop of supernatant, • analyzing the sample by MALDI-TOF spectrometry on VITEK-MS Plus (bioMérieux) with a method suitable for microbiology, i.e. with a positive ionization mode and a mass range from 2000 to 20 000 Th. • accumulating 100 profiles from 10 firings and comparing the data with the data contained in the databases for E. coli, • observing the presence or absence of protein peaks characteristic of E. coli. • determining the sensitivity to colistin if proteins characteristic of E. coli are detected or the resistance if no protein of E. coli is detected.
The E. coli strains S and R16 are analyzed with the same protocol as in example II apart from the incubation time of 30 minutes at 37° C. The S strain is sensitive to colistin and the R16 strain is resistant to colistin.
The same E. coli strains R16 and S are analyzed with the same protocol as in example III apart from incubation at 50° C.

Acinetobacter baumannii [6] = experiment: microdilution in broth (reference method); details: by microdilution in broth
Experimental: as §3
(§4) As before, the different strains were analyzed beforehand by microdilution in broth in order to determine their status (sensitive or resistant).

Pseudomonas aeruginosa [7] = experiment: microdilution in broth (reference method); details: by microdilution in broth
Experimental: as §3, §4

Structure (SMILES): CC(C)CCCCC(=O)N[C@@H](CCN)C(=O)N[C@H](C(=O)N[C@@H](CCN)C(=O)N[C@H]1CCNC(=O)[C@H]([C@@H](C)O)NC(=O)[C@H](CCN)NC(=O)[C@H](CCN)NC(=O)[C@H](CC(C)C)NC(=O)[C@@H](CC(C)C)NC(=O)[C@H](CCN)NC1=O)[C@@H](C)O [colistin] ({Heptanoyl(6-Me)}-[Dab]T[Dab][Dab][Dab][dL]L[Dab][Dab]T; lactam 4-C)
- Aire sous la courbe des pics observés, Protéine chaperonne de stress acide HdeB (Escherichia coli [1]; strain EC-R16): 0.00 unité arbitraire
- Aire sous la courbe des pics observés, Protéine ribosomique 50S L29 (Escherichia coli [1]; strain EC-R16): 0.00 unité arbitraire
- Aire sous la courbe des pics observés, Protéine ribosomique 50S L31 (Escherichia coli [1]; strain EC-R16): 0.00 unité arbitraire
- Aire sous la courbe des pics observés, Protéine ribosomique 50S L33 (Escherichia coli [1]; strain EC-R16): 0.00 unité arbitraire
- Aire sous la courbe des pics observés, SPIRAP (Stationary-Phase-Induced Ribosome-Associated Protein) (Escherichia coli [1]; strain EC-R16): 0.00 unité arbitraire
- Ratio par protéine HdeB/Colistine (Escherichia coli [1]; strain EC-R16): 0.00
- Ratio par protéine L29/Colistine (Escherichia coli [1]; strain EC-R16): 0.00
- Ratio par protéine L31/Colistine (Escherichia coli [1]; strain EC-R16): 0.00
- Ratio par protéine L33/Colistine (Escherichia coli [1]; strain EC-R16): 0.00
- Ratio par protéine SIRAP/Colistine (Escherichia coli [1]; strain EC-R16): 0.00
- Somme des ratios (Escherichia coli [1]; strain EC-R16): 0.00
- classification by sum of the ratios against threshold (Escherichia coli [1]; strain EC-R16): resistant (the strains whose sum of the ratios is strictly below 0.30 will be considered as resistant)
- Aire sous la courbe des pics observés, Protéine chaperonne de stress acide HdeB (Escherichia coli [1]; strain EC-R17): 0.00 unité arbitraire
- Aire sous la courbe des pics observés, Protéine ribosomique 50S L29 (Escherichia coli [1]; strain EC-R17): 0.00 unité arbitraire
- Aire sous la courbe des pics observés, Protéine ribosomique 50S L31 (Escherichia coli [1]; strain EC-R17): 0.00 unité arbitraire
- Aire sous la courbe des pics observés, Protéine ribosomique 50S L33 (Escherichia coli [1]; strain EC-R17): 0.00 unité arbitraire
- Aire sous la courbe des pics observés, SPIRAP (Stationary-Phase-Induced Ribosome-Associated Protein) (Escherichia coli [1]; strain EC-R17): 0.00 unité arbitraire
- Ratio par protéine HdeB/Colistine (Escherichia coli [1]; strain EC-R17): 0.00
- Ratio par protéine L29/Colistine (Escherichia coli [1]; strain EC-R17): 0.00
- Ratio par protéine L31/Colistine (Escherichia coli [1]; strain EC-R17): 0.00
- Ratio par protéine L33/Colistine (Escherichia coli [1]; strain EC-R17): 0.00
- Ratio par protéine SIRAP/Colistine (Escherichia coli [1]; strain EC-R17): 0.00
- Somme des ratios (Escherichia coli [1]; strain EC-R17): 0.00
- classification by sum of the ratios against threshold (Escherichia coli [1]; strain EC-R17): resistant (the strains whose sum of the ratios is strictly below 0.30 will be considered as resistant)
- Ratio par protéine HdeB/Colistine (Escherichia coli [1]; strain EC-S10): 0.15
- Ratio par protéine L33/Colistine (Escherichia coli [1]; strain EC-S10): 0.15
- Somme des ratios (Escherichia coli [1]; strain EC-S10): 0.30 and 0.39
- classification by sum of the ratios against threshold (Escherichia coli [1]; strain EC-S10): sensitive (the strains whose sum of the ratios is greater than or equal to 0.30 will be considered as sensitive)
- Aire sous la courbe des pics observés, Protéine chaperonne de stress acide HdeB (Escherichia coli [1]; strain EC-S15): 97.46 unité arbitraire and 60.9 unité arbitraire
- Aire sous la courbe des pics observés, Protéine ribosomique 50S L33 (Escherichia coli [1]; strain EC-S15): 86.71 unité arbitraire and 68.12 unité arbitraire
- Aire sous la courbe des pics observés, SPIRAP (Stationary-Phase-Induced Ribosome-Associated Protein) (Escherichia coli [1]; strain EC-S15): 0.00 unité arbitraire
- Ratio par protéine HdeB/Colistine (Escherichia coli [1]; strain EC-S15): 0.21
- Ratio par protéine L29/Colistine (Escherichia coli [1]; strain EC-S15): 0.02 and 0.01
- Ratio par protéine L31/Colistine (Escherichia coli [1]; strain EC-S15): 0.02 and 0.04
- Ratio par protéine L33/Colistine (Escherichia coli [1]; strain EC-S15): 0.26 and 0.19
- Somme des ratios (Escherichia coli [1]; strain EC-S15): 0.55 and 0.44
- classification by sum of the ratios against threshold (Escherichia coli [1]; strain EC-S15): sensitive (the strains whose sum of the ratios is greater than or equal to 0.30 will be considered as sensitive)
- sensitivity or resistance to colistin by MALDI-TOF (Escherichia coli [1]; strain EC_R16): resistant
- sensitivity or resistance to colistin by MALDI-TOF (Escherichia coli [1]; strain EC_R17): resistant
- sensitivity or resistance to colistin by MALDI-TOF (Escherichia coli [1]; strain EC_S10): sensitive
- sensitivity or resistance to colistin by MALDI-TOF (Escherichia coli [1]; strain EC_S15): sensitive
- sensitivity or resistance to colistin by MALDI-TOF (Acinetobacter baumannii [2]; strain AB_R-E105): resistant
- sensitivity or resistance to colistin by MALDI-TOF (Acinetobacter baumannii [2]; strain AB_S044): sensitive
- sensitivity or resistance to colistin by MALDI-TOF (Acinetobacter baumannii [2]; strain AB_S045): sensitive
- sensitivity or resistance to colistin by MALDI-TOF (Acinetobacter baumannii [2]; strain AB_S046): sensitive
- sensitivity or resistance to colistin by MALDI-TOF (Pseudomonas aeruginosa [3]; strain PA_RE66): resistant
- sensitivity or resistance to colistin by MALDI-TOF (Pseudomonas aeruginosa [3]; strain PA_RE68): resistant
- sensitivity or resistance to colistin by MALDI-TOF (Pseudomonas aeruginosa [3]; strain PA_S062): sensitive
- sensitivity or resistance to colistin by MALDI-TOF (Pseudomonas aeruginosa [3]; strain PA_SE64): sensitive
- Statuts par microdilution (Escherichia coli [4]; strain EC_R16 (mcr-1 plasmid)): Résistante
- Statuts par microdilution (Escherichia coli [4]; strain EC_R17 (mcr-1 plasmid)): Résistante
- Statuts par microdilution (Escherichia coli [4]; strain EC_S10): Sensible
- Statuts par microdilution (Escherichia coli [4]; strain EC_S15): Sensible
- sensitivity or resistance to colistin by MALDI-TOF (Escherichia coli [5]; strain EC_R, 4 h at 37° C.): resistant
- sensitivity or resistance to colistin by MALDI-TOF (Escherichia coli [5]; strain EC_S, 4 h at 37° C.): sensitive
- sensitivity or resistance to colistin by MALDI-TOF (Escherichia coli [5]; strain R16, 30 min at 37° C.): resistance
- sensitivity or resistance to colistin by MALDI-TOF (Escherichia coli [5]; strain R16, 30 min at 50° C.): resistance
- sensitivity or resistance to colistin by MALDI-TOF (Escherichia coli [5]; strain S, 30 min at 37° C.): sensitive
- sensitivity or resistance to colistin by MALDI-TOF (Escherichia coli [5]; strain S, 30 min at 50° C.): sensitivity
- Sensible ou Résistante (Acinetobacter baumannii [6]; strain AB_R-E105): Résistante
- Sensible ou Résistante (Acinetobacter baumannii [6]; strain AB_S044): Sensible
- Sensible ou Résistante (Acinetobacter baumannii [6]; strain AB_S045): Sensible
- Sensible ou Résistante (Acinetobacter baumannii [6]; strain AB_S046): Sensible
- Sensible ou Résistante (Pseudomonas aeruginosa [7]; strain PA_RE66): Résistante
- Sensible ou Résistante (Pseudomonas aeruginosa [7]; strain PA_RE68): Résistante
- Sensible ou Résistante (Pseudomonas aeruginosa [7]; strain PA_S062): Sensible
- Sensible ou Résistante (Pseudomonas aeruginosa [7]; strain PA_SE64): Sensible
